The values that follow come from US20130029981A1, “COMPOUNDS, COMPOSITIONS, AND METHODS FOR CONTROLLING BIOFILMS” (Katholieke Universiteit Leuven, priority 2009, published 2013).

SMILES strings stand for the structures. Where two headings read alike, the source gives them in different places.

One experiment concerns S. Typhimurium ATCC14028. As to the kind of experiment: Static peg assay for prevention of biofilm formation (Calgary device, crystal violet). It counts as cell-based, Salmonella Typhimurium. As for the experimental part: (§1) Evaluation of the biofilm inhibitory activity of some substituted 2-amino-1H-imidazoles of the invention was carried out by growing up biofilms of S. Typhimurium ATCC14028 or SL1344 or Pseudomonas aeruginosa PA14 in the presence of different concentrations (1/2 dilution series) of biofilm inhibitors, by using the Calgary biofilm device. After an incubation period of 24 hours at 25° C. or 37° C. or 48 hours at 16° C. the biofilms were visualized by crystal violet staining. In the next step the stain was extracted from the biofilm with 30% acetic acid. The absorbance of the resolubilized stain at 570 nm is a measure of the amount of biofilm formed.
In examples 2 and 3, the following materials and methods were used.
The device used for biofilm formation is a platform carrying 96 polystyrene pegs (Nunc no. 445497) that fits as a microtiter plate lid with a peg hanging into each microtiter plate well (Nunc no. 269789). Biofilm formation assays were carried out at 16° C., 25° C. and 37° C.
For biofilm assays at 16° C. and 25° C., two-fold serial dilutions of the compounds in 100 μl liquid TSB 1/20 broth per well were prepared in the microtiter plate. Subsequently, an overnight culture of S. Typhimurium ATCC14028 or SL1344 (grown up in LB medium) was diluted 1:100 into TSB 1/20 broth and 100 μl (ca. 10^6 cells) was added to each well of the microtiter plates, resulting in a total amount of 200 μl medium per well. The pegged lid was placed on the microtiter plate and the plate was incubated for 48 hours at 16° C. or for 24 hours at 25° C. without shaking. During this incubation period biofilms were formed on the surface of the pegs. In case of the assay at 16° C., after 24 hours the lid was transferred into a new plate with medium and the specific molecules used for testing. […] For quantification of biofilm formation, the pegs were washed once in 200 μl phosphate buffered saline (PBS). The remaining attached bacteria were stained for 30 minutes with 200 μl 0.1% (w/v) crystal violet in an isopropanol/methanol/PBS solution (v/v 1:1:18). Excess stain was rinsed off by placing the pegs in a 96-well plate filled with 200 μl distilled water per well. After the pegs were air dried (30 min), the dye bound to the adherent cells was extracted with 30% glacial acetic acid (200 μl). The OD570 of each well was measured using the VERSAmax microtiter plate reader. The IC50 value for each compound was determined from concentration gradients in two or three independent experiments (with 2 or 3 repeats per experiment), by using the GraphPad software of Prism.
For biofilm assays at 37° C., two-fold serial dilutions of the compounds in 50 μl liquid CFA broth per well were prepared in the microtiter plate. Subsequently, an overnight culture of S. Typhimurium ATCC 14028 was diluted 1:100 into CFA broth and 100 μl (ca. 10^6 cells) was added to each well of the microtiter plates, resulting in a total amount of 150 μl medium per well. The pegged lid was placed on the microtiter plate and the plate was incubated for 24 hours at 37° C. without shaking. During incubation the plates were placed in a humidity controlled container to prevent evaporation of the growth medium. Quantification of biofilm formation was performed similarly as described above for the assays at 16° C. and 25° C.
as §1, with “imidazo[1,2-a]pyrimidinium bromide salts” for “2-amino-1H-imidazoles”

The subject of experiment [1] is Pseudomonas aeruginosa PA14. Described as above. The format is cell-based. Here is the method:
as §1
The device used for Pseudomonas aeruginosa biofilm formation is the same platform carrying polystyrene pegs as described above for Salmonella Typhimurium.
Two-fold serial dilutions of the compounds in 100 μl liquid broth per well were prepared in the microtiter plate. Subsequently, an overnight culture of P. aeruginosa PA14 (grown up in TSB medium) was diluted 1:100 into liquid broth and 100 μl was added to each well of the microtiter plates, resulting in a total amount of 200 μl medium per well. The pegged lid was placed on the microtiter plate and the plate was incubated for 24 hours at 25° C., 30° C. or 37° C. without shaking. During this incubation period biofilms were formed on the surface of the pegs. The liquid broth used for the tests at 25° C. was TSB 1/20. The tests at 37° C. were performed in CFA and/or LBNS broth. During incubation at 30° C. and 37° C. the plates were placed in a humidity controlled container to prevent evaporation of the growth medium. Quantification of biofilm formation was performed similarly as described previously for the S. Typhimurium biofilm assays.
as §1, with “imidazo[1,2-a]pyrimidinium bromide salts” for “2-amino-1H-imidazoles”
as §1, with “substituted imidazo[1,2-a]-pyrimidinium bromide and perchlorate salts produced according to examples 3 and 5” for “substituted 2-amino-1H-imidazoles of the invention”, “C.” for “C. or 37° C. or 48 hours at 16° C.”, “nm was taken as” for “nm is”

The mark [2] stands for this setting: 25° C., 24 hours, Table 15, read-out: (1) IC50 (biofilm inhibition).
[3] abbreviates: 25° C., Table 16, read-out: S. Typhimurium IC50 (biofilm formation).
Where [4] appears, read: 25° C., 24 hours, Table 15, read-out: (2) IC50 (biofilm inhibition).
Setting [5] is: 25° C., Table 16, read-out: P. aeruginosa IC50 (biofilm formation).
The mark [6] stands for this setting: 25° C., Table 17, read-out: S. Typhimurium IC50 (biofilm formation).
[7] abbreviates: 25° C., Table 17, read-out: P. aeruginosa IC50 (biofilm formation).
The mark [8] stands for this setting: S. Typhimurium ATCC 14028, 25° C., read-out: S. Typhimurium IC50 (biofilm formation).
[9] abbreviates: P. aeruginosa PA14, 25° C., read-out: P. aeruginosa IC50 (biofilm formation).
The mark [10] stands for this setting: Salmonella enterica, 24 h, read-out: (1) IC50 (biofilm inhibition).
[11] abbreviates: Pseudomonas aeruginosa, PA14, 24 h, read-out: (2) IC50 (biofilm inhibition).

In general, IC50 refers to the midpoint of a concentration-inhibition curve. Take `COc1cccc(CCNc2ncc(-c3ccc(Cl)c(Cl)c3)[nH]2)c1` [Compound 130]: the IC50 is more than 800 µM with S. Typhimurium ATCC14028 (25° C., Table 22, read-out: S. Typhimurium IC50 (biofilm formation)) and more than 800 µM in experiment [1] (25° C., Table 22, read-out: P. aeruginosa IC50 (biofilm formation)).
In the case of `CCCCCCCCCCCCN1c2nccc[n+]2CC1(O)c1ccc(Cl)cc1` (racemic) [Compound 25], the IC50 with S. Typhimurium ATCC14028 (setting [2]) is 122 µM; in the experiment with S. Typhimurium ATCC14028 (setting [3]) it was 122 µM; in experiment [1] (setting [4]) it was 119 µM; in experiment [1] (setting [5]) it was more than 800 µM.
Turning to `CCCCCCCCN1c2nccc[n+]2CC1(O)c1ccc(Cl)cc1` (racemic) [Compound 21], the IC50 amounted to 6.98 µM in the experiment with S. Typhimurium ATCC14028 (setting [2]), 7 µM in the experiment with S. Typhimurium ATCC14028 (setting [3]), 11.7 µM in experiment [1] (setting [4]) and 21.7 µM in experiment [1] (setting [5]).
Consider `CCCCCCCCN1c2nccc[n+]2CC1(O)c1ccc(S(C)(=O)=O)cc1` (centres unmarked) [Compound 54], for which the IC50 with S. Typhimurium ATCC14028 (setting [2]) worked out at 60.3 µM; in the experiment on S. Typhimurium ATCC14028 (setting [6]), 60.3 µM; in experiment [1] (setting [4]) it was 11.5 µM; in experiment [1] (setting [7]), 99.9 µM.
`CCCCCCCCN1c2nccc[n+]2CC1(O)c1ccc(-c2ccc([N+](=O)[O-])cc2)cc1` (centres unmarked) [Compound 53]: the IC50 with S. Typhimurium ATCC14028 (setting [2]) was determined as 31 µM; with S. Typhimurium ATCC14028 (setting [6]) it was 31 µM; in experiment [1] (setting [4]) it was 119 µM; in experiment [1] (setting [7]), 215 µM.
Consider `CCCCCCCCNc1ncc(-c2ccc(F)cc2)[nH]1` [Compound 100], for which the IC50 in the experiment with S. Typhimurium ATCC14028 (setting [8]) was more than 400 µM; in experiment [1] (setting [9]), approximately 3.1 µM.
As for `CCCCCCCC[n+]1c(-c2ccc(Cl)c(Cl)c2)cn2cccnc21.[O-][Cl+3]([O-])([O-])[O-]` [2-(3,4-Dichlorophenyl)-1-octylimidazo[1,2-a]pyrimidin-1-ium perchlorate], the values for the 50% inhibitory concentration (IC50) (with S. Typhimurium ATCC14028 (setting [10]); in experiment [1] (setting [11])) were 3.84 µM and 12.7 µM, respectively.
`CCCCNc1ncc(-c2ccc(F)cc2)[nH]1` [Compound 98]: the IC50 with S. Typhimurium ATCC14028 (setting [8]) was 15.5 µM; in experiment [1] (setting [9]), 10.8 µM.
In the case of `CC(C)N1c2nccc[n+]2CC1(O)c1ccccc1` (racemic) [Compound 2], the IC50 is 540 µM with S. Typhimurium ATCC14028 (setting [3]) and more than 400 µM in experiment [1] (setting [5]).
In the case of `CS(=O)(=O)c1ccc(-c2cnc(N)[nH]2)cc1` [Compound 115], the IC50 (in the experiment with S. Typhimurium ATCC14028 (setting [8]); in experiment [1] (setting [9])) was more than 800 µM each time.
Turning to `CCCCCCCCCCCCCCN1c2nccc[n+]2CC1(O)c1ccccc1` (racemic) [Compound 14], the IC50 in the experiment on S. Typhimurium ATCC14028 (setting [2]) is 180 µM; in the experiment with S. Typhimurium ATCC14028 (setting [3]), 180 µM; in experiment [1] (setting [5]) it was more than 800 µM.
Consider `CCN1c2nccc[n+]2CC1(O)c1ccc([N+](=O)[O-])cc1` (racemic) [Compound 29], for which the concentration for half-maximal inhibition (IC50) was 579 µM with S. Typhimurium ATCC14028 (setting [3]) and more than 800 µM in experiment [1] (setting [5]).
On to `Clc1ccc(-c2cnc(NC3CCCC3)[nH]2)cc1` [Compound 118], for which the IC50 in the experiment with S. Typhimurium ATCC14028 (Table 21, S. Typhimurium ATCC14028, 25° C., read-out: S. Typhimurium IC50 (biofilm formation)) is 4.4 µM; in experiment [1] (Table 21, P. aeruginosa PA14, 25° C., read-out: P. aeruginosa IC50 (biofilm formation)), 13.5 µM.
In the case of `CCCCCCCC[n+]1c(-c2ccc(F)cc2)cn2cccnc21.[O-][Cl+3]([O-])([O-])[O-]` [2-(4-Fluorophenyl)-1-octylimidazo[1,2-a]pyrimidin-1-ium perchlorate], the IC50 in the experiment on S. Typhimurium ATCC14028 (setting [10]) was determined as 35.7 µM; in experiment [1] (setting [11]), 19.5 µM.
`CCCCCCCC[n+]1c(-c2ccc(SC)cc2)cn2cccnc21.[O-][Cl+3]([O-])([O-])[O-]` [2-(4-Methylthiophenyl)-1-octylimidazo[1,2-a]pyrimidin-1-ium perchlorate]: the results for the IC50 (with S. Typhimurium ATCC14028 (setting [10]); in experiment [1] (setting [11])) were 20.7 µM and 9.29 µM, respectively.
For `CCCCCCCCNc1ncc(-c2ccc(Cl)c(Cl)c2)[nH]1` [Compound 111], the results for the IC50 (with S. Typhimurium ATCC14028 (setting [8]); in experiment [1] (setting [9])) were 118 µM and more than 800 µM, respectively.
In the case of `CCCCCCCCCCCN1c2nccc[n+]2CC1(O)c1ccccc1` (racemic) [Compound 11], the IC50 with S. Typhimurium ATCC14028 (setting [2]) is 24.6 µM; in the experiment on S. Typhimurium ATCC14028 (setting [3]), 24.6 µM; in experiment [1] (setting [4]) it was 28.6 µM; in experiment [1] (setting [5]) it was more than 800 µM.
On to `OC1(c2ccccc2)C[n+]2cccnc2N1C1CCCCCCC1` (centres unmarked) [Compound 60], for which the IC50 in the experiment with S. Typhimurium ATCC14028 (setting [2]) came to 58.4 µM; in the experiment on S. Typhimurium ATCC14028 (25° C., Table 18, read-out: S. Typhimurium IC50 (biofilm formation)), 58.4 µM; in experiment [1] (setting [4]), 4.63 µM; in experiment [1] (25° C., Table 18, read-out: P. aeruginosa IC50 (biofilm formation)) it was 176 µM.
Consider `CCCCCCCCCCCCCN1c2nccc[n+]2CC1(O)c1ccccc1` (racemic) [Compound 13], for which the IC50 with S. Typhimurium ATCC14028 (setting [2]) is 81.6 µM; in the experiment with S. Typhimurium ATCC14028 (setting [3]) it was 81.6 µM; in experiment [1] (setting [4]), 17 µM; in experiment [1] (setting [5]), more than 800 µM.
